We go through eleven compounds from patent publication US20090054493A1, “THIAZOLE DERIVATIVES AS PPAR DELTA LIGANDS AND THEIR MANUFACTURING PROCESS” (priority 2005, published 2009).

pEC50: −log10 of the molar value.

Common to all, as to assay type: cell-based
One series has as its target T1, PPARα (Homo sapiens, UniProt Q07869).
T1 construct: full-length PPARs plasmid DNA; expressed in transfected cells; host or cells: CV-1 cells
T1 sequence (Q07869 1-468): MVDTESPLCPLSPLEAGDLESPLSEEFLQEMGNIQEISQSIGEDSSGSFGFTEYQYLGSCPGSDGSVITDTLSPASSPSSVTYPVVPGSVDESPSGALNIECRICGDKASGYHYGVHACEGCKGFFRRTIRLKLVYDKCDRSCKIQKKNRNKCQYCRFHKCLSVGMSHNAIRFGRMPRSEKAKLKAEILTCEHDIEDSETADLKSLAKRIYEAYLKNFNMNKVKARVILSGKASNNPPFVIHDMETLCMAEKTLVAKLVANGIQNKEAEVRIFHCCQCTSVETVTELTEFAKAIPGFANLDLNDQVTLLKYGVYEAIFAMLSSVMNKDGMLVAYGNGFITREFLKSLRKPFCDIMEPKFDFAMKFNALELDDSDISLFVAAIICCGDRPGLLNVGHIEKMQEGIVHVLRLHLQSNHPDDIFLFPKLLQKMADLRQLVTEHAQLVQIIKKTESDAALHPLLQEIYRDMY
In words: Transfection assay (luciferase reporter) in CV-1 cells, PPARα. The following applies: full-length PPAR plasmid, luciferase normalized with β-galactosidase. The procedure: (§1) The compounds prepared in Examples were tested for PPARδ activity by a transfection assay. In addition, the compounds were tested for selectivity for PPARα and PPARγ, the subtypes of PPARs, and also tested for toxicity by a MTT assay.
(§2) A transfection assay was performed using CV-1 cells. The culture of the cells was performed using a DMEM medium (10% FBS, DBS (delipidated) and 1% penicillin/streptomycin) on a 96-well plate in a 5% carbon dioxide-containing incubator at 37° C. The test was performed in four steps consisting of cell inoculation, transfection, treatment of the compounds, and analysis of results. Specifically, CV-1 cells were inoculated onto a 96-well plate at a concentration of 5,000 cells/well, and after 24 hours, the cells were transfected. In the cell transfection, full-length PPARs plasmid DNA, reporter DNA that has luciferase activity and thus allows the identification of PPARs, and β-galactosidase DNA that provides the information of transfection efficiency, were used as transfection reagents. Each of the compounds developed in the present invention was dissolved in dimethylsulfoxide (DMSO) and transfected into the cells at various concentrations using media. The cells were cultured in an incubator for 24 and then lysed with lysis buffer. The lysed cells were measured for luciferase and β-galactosidase activities using a luminometer and a microplate reader. The measured luciferase values were normalized with the β-galactosidase values and graphed. From the graph, EC50 values were determined.
(Reporter assays use an easily measured gene product as a stand-in for the process of interest.)

The next series concerns the target T2, PPARγ (Homo sapiens, UniProt P37231).
T2 construct: full-length PPARs plasmid DNA; expressed in transfected cells; host or cells: CV-1 cells
T2 sequence (P37231 1-505): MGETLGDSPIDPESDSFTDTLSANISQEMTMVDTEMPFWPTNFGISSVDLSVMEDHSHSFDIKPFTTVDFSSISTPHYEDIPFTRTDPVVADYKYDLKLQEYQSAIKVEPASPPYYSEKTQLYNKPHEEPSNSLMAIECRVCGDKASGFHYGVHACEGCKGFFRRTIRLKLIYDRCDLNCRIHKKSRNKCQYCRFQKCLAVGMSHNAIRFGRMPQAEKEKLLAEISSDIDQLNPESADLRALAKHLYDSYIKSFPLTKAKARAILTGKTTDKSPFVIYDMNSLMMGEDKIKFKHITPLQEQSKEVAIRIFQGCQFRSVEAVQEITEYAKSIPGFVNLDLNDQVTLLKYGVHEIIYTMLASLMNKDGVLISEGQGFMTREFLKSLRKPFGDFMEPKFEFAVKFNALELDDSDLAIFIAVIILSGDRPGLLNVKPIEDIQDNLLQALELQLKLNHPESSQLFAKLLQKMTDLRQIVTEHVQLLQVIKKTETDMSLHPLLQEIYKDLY
Kind of series: Transfection assay (luciferase reporter) in CV-1 cells, PPARγ. The following applies: full-length PPAR plasmid, luciferase normalized with β-galactosidase. The procedure:
as §1
as §2, with “The test was performed in four steps consisting of cell inoculation, transfection, treatment of the compounds, and analysis of results.” left out

A short description of a further series: MTT assay, cytotoxicity. Conditions: African green monkey, CV-1 cells, read-out: LC50 Cytotoxicity. On the procedure:
The compounds of Examples 47-97 according to the present invention were tested for cytotoxicity using a MTT assay. MTT is a water-soluble yellow substance, but if it is introduced into living cells, it will be degenerated into a water-insoluble purple crystal due to dehydrogenase contained in mitochondria. If this substance is dissolved in dimethylsulfoxide and then measured for absorbance at 550 nm, cytotoxicity can be assayed. The test method is as follows.
CV-1 cells were first inoculated onto a 96-well plate at a concentration of 5,000 cells/well. The inoculated cells were cultured in a 5% carbon dioxide-containing humidified incubator at 37° C. for 24 hours, and then treated with the inventive compounds at various concentrations. After 24 hours of culture, a MTT reagent was added to the cultured cells. After 15 minutes of culture, the resulting purple crystal was dissolved in dimethylsulfoxide and then measured for absorbance using a microplate reader. From the measured absorbance, cytotoxicity was assayed.
In general terms: Formazan colour is commonly taken as a measure of viable cells.

Another series addresses T3, PPARδ (Homo sapiens, UniProt Q03181).
T3 sequence (Q03181 1-441): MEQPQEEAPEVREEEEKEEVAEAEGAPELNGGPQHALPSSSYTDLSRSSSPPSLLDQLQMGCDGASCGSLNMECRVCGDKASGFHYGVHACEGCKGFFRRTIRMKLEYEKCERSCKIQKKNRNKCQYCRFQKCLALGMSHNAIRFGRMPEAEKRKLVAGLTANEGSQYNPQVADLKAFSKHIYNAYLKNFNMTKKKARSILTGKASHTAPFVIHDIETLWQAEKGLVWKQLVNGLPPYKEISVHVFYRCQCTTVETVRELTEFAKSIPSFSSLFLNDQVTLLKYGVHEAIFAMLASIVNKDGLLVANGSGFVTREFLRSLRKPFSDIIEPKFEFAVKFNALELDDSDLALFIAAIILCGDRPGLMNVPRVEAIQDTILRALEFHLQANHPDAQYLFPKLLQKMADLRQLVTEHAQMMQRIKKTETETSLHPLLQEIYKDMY
Kind of series: Transfection assay (luciferase reporter) in CV-1 cells, PPARδ. More on the design: full-length PPARs plasmid DNA; expressed in transfected cells; host or cells: CV-1 cells. The following applies: full-length PPAR plasmid, luciferase normalized with β-galactosidase. On the procedure: as §1
as §2, with “The test was performed in four steps consisting of cell inoculation, transfection, treatment of the compounds, and analysis of results.” left out

Usually pEC50 stands for the negative decadic logarithm of the EC50, by convention in mol/L. High values mean a low EC50, low ones a high EC50. With `Cc1cc(SC(CCCCc2ccccc2)c2sc(-c3ccc(C(F)(F)F)cc3)nc2C)ccc1OCC(=O)O` (centres unmarked) [Example 71, 2-[4-[1-[2-[4-(trifluoromethyl)phenyl]-4-methylthiazol-5-yl]-5-phenylpentylthio]-2-methylphenoxy]acetic acid], on PPARα, the “EC50 PPARα” value was “ia”. Also, the “EC50 PPARγ” value at PPARγ is reported as “ia”. For the same compound, the CC50 at 24 h in “MTT assay, cytotoxicity” is 93 µM. This compound also had a pEC50 on PPARδ of 7.41.
Regarding `Cc1cc(SC(Cc2c(F)cccc2Cl)c2sc(-c3ccc(C(F)(F)F)c(F)c3)nc2C)ccc1OCC(=O)O` (centres unmarked) [Example 91, 2-[4-[2-(2-chloro-6-fluorophenyl)-1-[2-[3-fluoro-4-(trifluoromethyl)phenyl]-4-methylthiazol-5-yl]ethylthio]-2-methylphenoxy]acetic acid], the “EC50 PPARα” value at PPARα is on record as “ia”. The “EC50 PPARγ” value on PPARγ is “ia”. For the same compound, in “MTT assay, cytotoxicity”, the CC50 at 24 h was more than 10 µM. The same compound had a pEC50 on PPARδ of 8.41.
Regarding `Cc1cc(SC(Cc2c(F)cccc2Cl)c2sc(-c3ccc(C(F)(F)F)cc3)nc2C)ccc1OCC(=O)O` (centres unmarked) [Example 75, 2-[4-[2-(2-chloro-6-fluorophenyl)-1-[2-[4-(trifluoromethyl)phenyl]-4-methylthiazol-5-yl]ethylthio]-2-methylphenoxy]acetic acid], the “EC50 PPARα” value on PPARα is given as “ia”. Further, the “EC50 PPARγ” value on PPARγ was “ia”. The CC50 at 24 h in “MTT assay, cytotoxicity” is more than 100 µM. Besides, the negative-log EC50 (pEC50) at PPARδ was 8.68.
With `Cc1cc(SC(CCCCCc2ccccc2)c2sc(-c3ccc(C(F)(F)F)cc3)nc2C)ccc1OCC(=O)O` (centres unmarked) [Example 72, 2-[4-[1-[2-[4-(trifluoromethyl)phenyl]-4-methylthiazol-5-yl]-6-phenylhexylthio]-2-methylphenoxy]acetic acid], the “EC50 PPARα” value on PPARα is “ia”. Further, the “EC50 PPARγ” value at PPARγ was “ia”. Also, in the series “MTT assay, cytotoxicity”, the CC50 at 24 h turned out to be 92 µM. In addition, the negative-log EC50 (pEC50) at PPARδ is 7.94.
On to `Cc1cc(SC(Cc2cc(F)c(F)c(F)c2)c2sc(-c3ccc(C(F)(F)F)c(F)c3)nc2C)ccc1OCC(=O)O` (centres unmarked) [Example 92, 2-[4-[1-[2-[3-fluoro-4-(trifluoromethyl)phenyl]-4-methylthiazol-5-yl]-2-(3,4,5-trifluorophenyl)ethylthio]-2-methylphenoxy]acetic acid], for which the “EC50 PPARα” value on PPARα is listed as “ia”. In addition, on PPARγ, the “EC50 PPARγ” value is on record as “ia”. The CC50 at 24 h in “MTT assay, cytotoxicity” was more than 30 µM. The pEC50 on PPARδ is 7.67.
As for `Cc1cc(SC(Cc2c(F)cccc2F)c2sc(-c3ccc(C(F)(F)F)cc3)nc2C)ccc1OCC(=O)O` (centres unmarked) [Example 83, 2-[4-[1-[2-[4-(trifluoromethyl)phenyl]-4-methylthiazol-5-yl]-2-(2,6-difluorophenyl)ethylthio]-2-methylphenoxy]acetic acid], the negative logarithm of the EC50 (pEC50) was less than 4.00 at PPARα, less than 5.00 on PPARγ and 8.59 at PPARδ. The CC50 at 24 h in the series “MTT assay, cytotoxicity” is more than 100 µM.
On to `Cc1cc(SC(Cc2c(F)cccc2C(F)(F)F)c2sc(-c3ccc(C(F)(F)F)c(F)c3)nc2C)ccc1OCC(=O)O` (centres unmarked) [Example 93, 2-[4-[1-[2-[3-fluoro-4-(trifluoromethyl)phenyl]-4-methylthiazol-5-yl]-2-(2-fluoro-6-(trifluoromethyl)phenyl)ethylthio]-2-methylphenoxy]acetic acid], for which, at PPARα, the “EC50 PPARα” value is “ia”. The “EC50 PPARγ” value on PPARγ is listed as “ia”. The CC50 at 24 h in “MTT assay, cytotoxicity” was more than 10 µM. This compound gave a negative-log EC50 (pEC50) on PPARδ of 8.59.
Regarding `Cc1cc(SC(CCc2ccccc2)c2sc(-c3ccc(C(F)(F)F)cc3)nc2C)ccc1OCC(=O)O` (centres unmarked) [Example 68, 2-[4-[1-[2-[4-(trifluoromethyl)phenyl]-4-methylthiazol-5-yl]-3-phenylpropylthio]-2-methylphenoxy]acetic acid], at PPARα, the “EC50 PPARα” value is “ia”. The “EC50 PPARγ” value on PPARγ is “ia”. The CC50 at 24 h in “MTT assay, cytotoxicity” is more than 100 µM. At PPARδ, the pEC50 was 8.57.
On to `Cc1cc(SC(Cc2c(Cl)cccc2Cl)c2sc(-c3ccc(C(F)(F)F)c(F)c3)nc2C)ccc1OCC(=O)O` (centres unmarked) [Example 95, 2-[4-[2-(2,6-dichlorophenyl)-1-[2-[3-fluoro-4-(trifluoromethyl)phenyl]-4-methylthiazol-5-yl]ethylthio]-2-methylphenoxy]acetic acid], for which, on PPARα, the “EC50 PPARα” value was “ia”. In addition, at PPARγ, the “EC50 PPARγ” value is given as “ia”. Further, the CC50 at 24 h in “MTT assay, cytotoxicity” was more than 10 µM. Moreover, the pEC50 at PPARδ is 8.64.
Take `Cc1cc(SC(CCCCCCCc2ccccc2)c2sc(-c3ccc(C(F)(F)F)cc3)nc2C)ccc1OCC(=O)O` (centres unmarked) [Example 73, 2-[4-[1-[2-[4-(trifluoromethyl)phenyl]-4-methylthiazol-5-yl]-8-phenyloctylthio]-2-methylphenoxy]acetic acid]: the “EC50 PPARα” value on PPARα is on record as “ia”. In addition, on PPARγ, the “EC50 PPARγ” value is recorded as “ia”. Moreover, in “MTT assay, cytotoxicity”, the CC50 at 24 h turned out to be 94 µM. This compound had a pEC50 at PPARδ of 7.24.
Regarding `Cc1cc(SC(Cc2c(Cl)cccc2Cl)c2sc(-c3ccc(C(F)(F)F)cc3)nc2C)ccc1OCC(=O)O` (centres unmarked) [Example 84, 2-[4-[2-(2,6-dichlorophenyl)-1-[2-[4-(trifluoromethyl)phenyl]-4-methylthiazol-5-yl]ethylthio]-2-methylphenoxy]acetic acid], on PPARα, the “EC50 PPARα” value is given as “ia”. Also, the “EC50 PPARγ” value on PPARγ is “ia”. The CC50 at 24 h in the series “MTT assay, cytotoxicity” is more than 100 µM. The pEC50 on PPARδ was 8.68.
